In patent US20200390729A1, “OPHTHALMIC TOPICAL COMPOSITION COMPRISING DOBESILIC ACID FOR TREATING DISEASES OF THE POSTERIOR SEGMENT OF THE EYE” (LABORATORIOS SALVAT, S.A., priority 2017, published 2020):
Where two headings read alike, the source gives them in different places.

Assay: Ocular distribution of CDO in rats, single dose topical ocular vs. oral
Format: in vivo, Sprague Dawley (SD) rat
Settings: rat
Protocol: In Sprague Dawley (SD) rat, weighing approximately 200 g, CDO was administered by topical ocular instillation (10 μl/eye) at 10 mg/ml (composition 2 of Example 1), at 100 mg/ml (composition 5 of Example 1) or by oral gavage at 50 mg/kg, at 200 mg/kg or at 750 mg/kg in aqueous solution (from compositions 1, 3 and 4, respectively, of Example 1). At 15, 60, 180 and 360 minutes post-administration, animals were euthanized and plasma and ocular tissues including sclera, cornea, retina, vitreous humour/lens and optic nerve were collected.
Bioanalysis of CDO was performed depending on the type of matrix. In the case of plasma, proteins were precipitated using methanol. In the case of tissues, samples were grinded in a Mini Bead Beater using zirconium beads and methanol/water (1:1) (v/v) as solvent. After centrifugation, samples were analyzed by UPLC-MS/MS.
Chromatographic separation was carried out using an Acquity CSH Fluoro Phenyl column (1.7 μm, 50×2.1 mm). Mobile phase consisted of a gradient using 0.1% formic acid in water and acetonitrile from 5% to 45% in 4.5 min at a flow rate of 0.6 ml/min.
With regard to the mass spectrometric detection, the electrospray ionization source worked to record negative ions. Multiple Reaction Monitoring (MRM) acquisition mode of the deprotonated molecular ions was performed. The transition monitored for CDO was m/z 189.0→80.1 with a cone voltage of 45 V and collision energy of 25 eV.

[1] = Sprague Dawley, cornea, topical eye 10 mg/ml (eye drop of 10 μl) = 0.1 mg, read-out: CDO concentrations Cornea
[2] = Sprague Dawley, cornea, topical eye 100 mg/ml (eye drop of 10 μl) = 1 mg, read-out: CDO concentrations Cornea
[3] = Sprague Dawley, optic nerve, oral 50 mg/Kg = 10 mg, read-out: CDO concentrations Optic nerve
[4] = Sprague Dawley, plasma, oral 200 mg/Kg = 40 mg, read-out: CDO concentrations Plasma
[5] = Sprague Dawley, plasma, oral 750 mg/Kg = 150 mg, read-out: CDO concentrations Plasma
[6] = Sprague Dawley, retina/choroid, topical eye 10 mg/ml (eye drop of 10 μl) = 0.1 mg, read-out: CDO concentrations Retina/Choroid
[7] = Sprague Dawley, retina, oral 200 mg/Kg = 40 mg, read-out: CDO concentrations Retina
[8] = Sprague Dawley, retina, oral 750 mg/Kg = 150 mg, read-out: CDO concentrations Retina
[9] = Sprague Dawley, retina, topical eye 100 mg/ml (eye drop of 10 μl) = 1 mg, read-out: CDO concentrations Retina
[10] = Sprague Dawley, sclera, topical eye 10 mg/ml (eye drop of 10 μl) = 0.1 mg, read-out: CDO concentrations Sclera
[11] = Sprague Dawley, sclera, topical eye 100 mg/ml (eye drop of 10 μl) = 1 mg, read-out: CDO concentrations Sclera
[12] = Sprague Dawley, vitreous humour/lens, topical eye 10 mg/ml (eye drop of 10 μl) = 0.1 mg, read-out: CDO concentrations Vitreous humour/lens
[13] = Sprague-Dawley, optic nerve, topical eye 10 mg/ml (eye drop of 10 μl) = 0.1 mg, read-out: CDO concentrations Optic nerve
[14] = Sprague-Dawley, optic nerve, topical eye 100 mg/ml (eye drop of 10 μl) = 1 mg, read-out: CDO concentrations Optic nerve

With `O=S(=O)(O)c1cc(O)ccc1O` [CDO, Calcium dobesilate monohydrate] the concentration at 0.25 h [1] was 4610 ng/g, the concentration at 1 h [1] was 1010 ng/g and the concentration at 3 h [1] was 1990 ng/g. The concentration at 0.25 h [2] was 58000 ng/g, the concentration at 1 h [2] was 1720 ng/g and the concentration at 3 h [2] was 3110 ng/g. The concentration at 3 h [3] was 1890 ng/g, the concentration at 6 h [3] was 410 ng/g and the concentration at 0.25 h [4] was 3100 ng/g. It also gave a concentration at 1 h [4] of 9040 ng/g, a concentration at 3 h [4] of 11400 ng/g and a concentration at 0.25 h [5] of 12600 ng/g. For the same compound, the concentration at 1 h [5] was 28800 ng/g, the concentration at 3 h [5] was 47600 ng/g and the concentration at 0.25 h [6] was 1830 ng/g. It also gave a concentration at 1 h [6] of 600 ng/g, a concentration at 3 h [6] of 2150 ng/g and a concentration at 0.25 h (Sprague Dawley, retina/choroid, topical eye 100 mg/ml (eye drop of 10 μl) = 1 mg, read-out: CDO concentrations Retina/Choroid) of 17600 ng/g. For the same compound, the concentration at 0.25 h [7] was 110 ng/g, the concentration at 1 h [7] was 470 ng/g and the concentration at 3 h [7] was 1040 ng/g. For the same compound, the concentration at 0.25 h [8] was 670 ng/g, the concentration at 1 h [8] was 1340 ng/g and the concentration at 3 h [8] was 2420 ng/g. It also gave a concentration at 0.25 h (Sprague Dawley, retina, topical eye 10 mg/ml (eye drop of 10 μl) = 0.1 mg, read-out: CDO concentrations Retina) of 100 ng/g, a concentration at 0.25 h [9] of 2030 ng/g and a concentration at 1 h [9] of 640 ng/g. It also gave a concentration at 3 h [9] of 250 ng/g, a concentration at 6 h [9] of 130 ng/g and a concentration at 0.25 h [10] of 170 ng/g. For the same compound, the concentration at 1 h [10] was 330 ng/g, the concentration at 3 h [10] was 770 ng/g and the concentration at 0.25 h [11] was 3540 ng/g. It also gave a concentration at 1 h [11] of 1140 ng/g, a concentration at 3 h [11] of 220 ng/g and a concentration at 0.25 h [12] of 1480 ng/g. It also gave a concentration at 1 h [12] of 1680 ng/g, a concentration at 3 h [12] of 190 ng/g and a concentration at 0.25 h [13] of 5300 ng/g. The concentration at 1 h [13] was 850 ng/g, the concentration at 6 h [13] was 250 ng/g and the concentration at 0.25 h [14] was 13700 ng/g. For the same compound, the concentration at 1 h [14] was 2910 ng/g, the concentration at 3 h [14] was 1920 ng/g and the concentration at 6 h [14] was 2650 ng/g. The concentration at 0.25 h (Sprague-Dawley, plasma, topical eye 10 mg/ml (eye drop of 10 μl) = 0.1 mg, read-out: CDO concentrations Plasma) was 10 ng/g.
